# Test results reported in US20230116399A1, “Tumor Homing Statin Derivatives” (Da Zen Theranostics, Inc., priority 2019, published 2023).
# Assays:
# 22Rv1 cancer cells = experiment: Western blot for polyubiquitinated proteins; format: cell-based, human; conditions: anti-ubiquitin antibody
# Procedure: Example 3D: Proteins are denatured and separated as described in example 3C; on the membrane a western blot is performed using an antibody that targets ubiquitin for detection of polyubiquitinated proteins; the probes include a molecular weight marker (“Marker”), DMSO (vehicle which serves as a control), an unconjugated statin (Simvastatin), an unconjugated dye (DZ1), and the THSD (here ALSD of formula FIId, “DZ2a”, compound 7). […] Thus it is shown that THSD prevent the removal of polyubiquitinated proteins by cancer cells through altered autophagic processes which involve defective lysosomal functions.
# [1] = test system: 22Rv1 human prostate carcinoma tumors; experiment: Tumor volume of 22Rv1 tumors grown subcutaneously in mice; format: in vivo; conditions: 5 mg/kg, intravenously injected
# Procedure: Example 1D: 22Rv1 human prostate carcinoma cells are cultured as described above, separated from the medium, resuspended in 50% phosphate buffered saline (PBS) and 50% BD Matrigel™ (BD Biosciences, CA), and then the re-suspended cells are injected and grown subcutaneously in mice. […] The decrease of the THSD in the tumors at 2 and 4 weeks, respectively, as determined by NIR signal, is less than about 30%.
# Example 1E: 22Rv1 human prostate carcinoma cells are cultured, injected and grown subcutaneously in mice as described above in example 1D. Tumor volume is monitored by measuring the size by caliper and calculating volume as described in example 9 below. The mice are intravenously injected with the following: ALSD of formula FIId, “DZ2a”, compound 7, the corresponding unconjugated dye (here: DZ1), unconjugated Simvastatin, a statin drug (SIM), and docetaxel (DOC), a cancer drug, and a mixture of the ALSD with DOC. Each active was administered in an amount of 5 mg/kg for the ALSD, DZ1, and SIM, except, in case of DOC, 8 mg/kg. A slower rate of increased tumor volume indicates tumor suppressive activity.
# 22RV1 (PC) = experiment: MTT cell viability, 22RV1; format: cell-based, human; conditions: Homo sapiens, 22Rv1, 22RV1, treated for 48 h /, relative IC50
# Procedure: (§1) Cell culture: In the following examples, unless otherwise specified, all cell lines are purchased from American Type Culture Collection and cultured in American Type Culture Collection (ATCC)-recommended media, with fetal bovine serum (FBS) to a final concentration of 10% and 1×penicillin/streptomycin at 37° C. with 5% CO2 in a cell culture incubator, unless otherwise specified. Unless otherwise specified, culture is 2D. Where culture is 3D, low attachment plates are used, with the same media. C4-2B (parental cell line and drug-resistant cells derived therefrom) are cultured in RPMI-1640 with 10% FBS. MDVR cells (an Enzalutamide-resistant variety of C4-2B prostate cancer cells formed as described in Example 4 below) are cultured as indicated for the parental C4-2B cells. 22RV1 Prostate Cancer (PC) cells (ATCC® CRL-2505™, a human prostate carcinoma cell line of epithelial morphology) are cultured in RPMI-1640 with 10% FBS. A549 cells (ATCC® CCL-185™, a human lung carcinoma cell line of epithelial morphology) are cultured in F-12K medium with 10% FBS. A549/DDP cells (Cells were described in DOI: 10.3892/mmr.2014.2163 and in doi: 10.7150/jca.19426; cisplatin resistant cells may be established from exposing parental A549 cells to cisplatin for an extended time). MDR A549/cisplatin lung adenocarcinoma cell line, drug resistant) are cultured in F-12K medium with 10% FBS. H1975 cells (ATCC® CRL-5908™, a human adenocarcinoma non-small cell lung cancer cell line of epithelial morphology) are cultured in RPMI-1640 medium with 10% FBS; H1975 cells are a cell model for human lung cancer that is resistant to Gefitinib (an EGFR inhibitor drug used for treatment of certain breast, lung and other cancers). H1650 cells (ATCC® CRL-5883™, a adenocarcinoma/bronchoalveolar carcinoma lung cancer cell line of epithelial morphology) are cultured in RPMI-1640 medium with 10% FBS. […]
# […] For each cell line, the IC50 is determined for each drug, i.e. the ELSD, the ALSD, and for the corresponding unconjugated statin (Simvastatin), in concentrations from 0.1-100 μM. […]
# PC3 (PC) = experiment: MTT cell viability, PC3; format: cell-based; conditions: Homo sapiens, 48 h / 24 hours, relative IC50
# Procedure: as §1, with “FBS.” for “FBS. H1975 cells (ATCC® CRL-5908™, a human adenocarcinoma non-small cell lung cancer cell line of epithelial morphology) are cultured in RPMI-1640 medium with 10% FBS; H1975 cells are a cell model for human lung cancer that is resistant to Gefitinib (an EGFR inhibitor drug used for treatment of certain breast, lung and other cancers). H1650 cells (ATCC® CRL-5883™, a adenocarcinoma/bronchoalveolar carcinoma lung cancer cell line of epithelial morphology) are cultured in RPMI-1640 medium with 10% FBS.”
IC50 (22RV1 (PC)) [µM],IC50 (PC3 (PC)) [µM],SMILES,ubiquitin signal (polyubiquitinated proteins) (22Rv1 cancer cells),tumor suppressive activity (tumor volume increase) [1]
,,CC1(C)C(/C=C/C2=C(Cl)C(=C/C=C3/N(CCCCCC(=O)O)c4ccccc4C3(C)C)/CCC2)=[N+](CCCCS(=O)(=O)[O-])c2ccccc21 [DZ1],much weaker signals and less of a smear,no significant tumor suppressive activity
38.7,14.8,CCC(C)(C)C(=O)O[C@H]1C[C@@H](C)C=C2C=C[C@H](C)[C@H](CC[C@@H]3C[C@@H](O)CC(=O)O3)[C@H]21 [Simvastatin],,
